Source: PubChem BioAssay AID248 (DTP/NCI, 2004)
“And” between values parts separate entries of the source, which are not always exact repeats. Equal entries are not always repeated. Inconclusive results and toxic doses are left out. No stated cut-off is given here; in the data, active means T/C of 150% or more; inactive means T/C below 125%.

Test system: L1210 leukemia ip in BDF1 mice, survival T/C
Experiment: NCI In Vivo Anticancer Drug Screen. Data for tumor model L1210 Leukemia (intraperitoneal) in B6D2F1 (BDF1) mice
Settings: endpoint: mean survival time, higher = longer survival
How it was run: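 Tumor was transplanted into mice, which were then dosed with test compound or vehicle alone. Survival was recorded for each group, and the treated figure was expressed relative to the control figure.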

[1] = dose: 100.0 mg/kg/injection, schedule: Q01DX009 (ip), vehicle: saline with Tween-80
[2] = dose: 200.0 mg/kg/injection, schedule: Q01DX009 (ip), vehicle: saline with Tween-80
[3] = dose: 100.0 mg/kg/injection, schedule: Q04DX003 (ip), vehicle: saline with Tween-80
[4] = dose: 200.0 mg/kg/injection, schedule: Q04DX003 (ip), vehicle: saline with Tween-80
[5] = dose: 400.0 mg/kg/injection, schedule: Q04DX003 (ip), vehicle: saline with Tween-80
[6] = dose: 100.0 mg/kg/injection, schedule: Q04DX003 (ip), vehicle: Klucel (hydroxypropylcellulose) (HPC)
[7] = dose: 200.0 mg/kg/injection, schedule: Q04DX003 (ip), vehicle: Klucel (hydroxypropylcellulose) (HPC)
[8] = dose: 50.0 mg/kg/injection, schedule: Q01DX009 (ip), vehicle: Klucel (hydroxypropylcellulose) (HPC)
[9] = dose: 100.0 mg/kg/injection, schedule: Q01DX009 (ip), vehicle: Klucel (hydroxypropylcellulose) (HPC)
[10] = dose: 200.0 mg/kg/injection, schedule: Q01DX009 (ip), vehicle: Klucel (hydroxypropylcellulose) (HPC)
[11] = dose: 400.0 mg/kg/injection, schedule: Q04DX003 (ip), vehicle: Klucel (hydroxypropylcellulose) (HPC)
[12] = dose: 400.0 mg/kg/injection, schedule: Q01DX009 (ip), vehicle: Klucel (hydroxypropylcellulose) (HPC)

Measured: T/C

CCCCc1c(C)nc(N)nc1N
inactive: dose: 3.12 mg/kg/injection, schedule: Q01DX001 (ip), vehicle: Klucel (hydroxypropylcellulose) (HPC) 105 % of control | dose: 6.25 mg/kg/injection, schedule: Q01DX001 (ip), vehicle: Klucel (hydroxypropylcellulose) (HPC) 110 % of control | dose: 12.5 mg/kg/injection, schedule: Q01DX001 (ip), vehicle: Klucel (hydroxypropylcellulose) (HPC) 111 % of control | dose: 25.0 mg/kg/injection, schedule: Q01DX001 (ip), vehicle: saline 98 % of control

Cc1cc([N+](=O)[O-])ccn1
inactive: [1] 94 % of control | [2] 93 % of control

CCC(=O)Nc1cc(C(F)(F)F)ccc1Cl
inactive: [1] 96 % of control | [3] 103 % of control | [2] 96 % of control | [4] 98 % of control | dose: 400.0 mg/kg/injection, schedule: Q01DX009 (ip), vehicle: saline with Tween-80 98 % of control | [5] 98 % of control

O=C1CC2CCCC(C1)N2Cc1ccccc1
inactive: dose: 100.0 mg/kg/injection, schedule: Q01DX001 (ip), vehicle: saline 92 % of control | dose: 200.0 mg/kg/injection, schedule: Q01DX001 (ip), vehicle: saline 97 % of control | dose: 400.0 mg/kg/injection, schedule: Q01DX001 (ip), vehicle: saline 101 % of control

COc1ccc(S(=O)(=O)c2ccc(F)cc2)cc1
inactive: dose: 50.0 mg/kg/injection, schedule: Q04DX003 (ip), vehicle: Klucel (hydroxypropylcellulose) (HPC) 95 % of control | dose: 100.0 mg/kg/injection, schedule: Q01DX001 (ip), vehicle: other 98 % of control | [6] 103 % of control | dose: 200.0 mg/kg/injection, schedule: Q01DX001 (ip), vehicle: other 110 % of control | [7] 104 % of control | dose: 400.0 mg/kg/injection, schedule: Q01DX001 (ip), vehicle: other 95 % of control

COc1ccc([N+](=O)[O-])cc1NC(=O)Oc1ccc(SC)cc1
inactive: [8] 111 % of control | [9] 92 % of control | [10] 100 % of control

CC(C)(C)CC(C)(C)c1ccc(O)cc1
inactive: dose: 62.5 mg/kg/injection, schedule: Q01DX Z (ip), vehicle: saline 95 % of control | dose: 100.0 mg/kg/injection, schedule: Q01DX001 (ip), vehicle: carboxymethylcellulose (CMC) 94 % of control | dose: 125.0 mg/kg/injection, schedule: Q01DX Z (ip), vehicle: saline 101 % of control | dose: 200.0 mg/kg/injection, schedule: Q01DX001 (ip), vehicle: carboxymethylcellulose (CMC) 100 % of control | dose: 250.0 mg/kg/injection, schedule: Q01DX Z (ip), vehicle: saline 90 % of control | dose: 400.0 mg/kg/injection, schedule: Q01DX001 (ip), vehicle: carboxymethylcellulose (CMC) 100 % of control | dose: 500.0 mg/kg/injection, schedule: Q01DX Z (ip), vehicle: saline 100 % of control

O=C(NCCc1ccccc1)C(Cl)Cl
inactive: [8] 93 % of control | [9] 93 % of control | [6] 103 % of control | [10] 94 % of control | [7] 95 % of control | [11] 101 % of control

Br/C=C\c1ccccc1
inactive: dose: 50.0 mg/kg/injection, schedule: Q01DX009 (ip), vehicle: acetone 86 % of control | dose: 100.0 mg/kg/injection, schedule: Q01DX009 (ip), vehicle: saline 107 % of control | dose: 100.0 mg/kg/injection, schedule: Q04DX003 (ip), vehicle: saline 97 % of control | dose: 200.0 mg/kg/injection, schedule: Q01DX009 (ip), vehicle: acetone 95 % of control | dose: 200.0 mg/kg/injection, schedule: Q04DX003 (ip), vehicle: saline 94 % of control | dose: 400.0 mg/kg/injection, schedule: Q04DX003 (ip), vehicle: saline 98 % of control

CC(C)(O)S(=O)(=O)O
inactive: dose: 100.0 mg/kg/injection, schedule: Q04DX002 (ip), vehicle: saline with Tween-80 95 % of control | dose: 200.0 mg/kg/injection, schedule: Q04DX002 (ip), vehicle: saline with Tween-80 101 % of control | dose: 400.0 mg/kg/injection, schedule: Q04DX002 (ip), vehicle: saline with Tween-80 98 % of control

O=C1C2C(c3cc4ccccc4n31)N2c1ccccc1 (stereo unspecified)
inactive: dose: 0.75 mg/kg/injection, schedule: Q01DX001 (ip), vehicle: water 103 % of control | dose: 1.5 mg/kg/injection, schedule: Q01DX001 (ip), vehicle: water 103 % of control | dose: 3.0 mg/kg/injection, schedule: Q01DX001 (ip), vehicle: water 100 % of control | dose: 6.0 mg/kg/injection, schedule: Q01DX001 (ip), vehicle: water 106 % of control | dose: 12.0 mg/kg/injection, schedule: Q01DX001 (ip), vehicle: water 91 % of control | dose: 24.0 mg/kg/injection, schedule: Q01DX001 (ip), vehicle: water 106 % of control

CC(C)(CSCC(C)(C)C(=O)O)C(=O)O
inactive: [6] 104 % of control | [7] 94 % of control | [11] 91 % of control

C#CC1(N2CCCCC2)CCCCC1
inactive: dose: 100.0 mg/kg/injection, schedule: Q04DX002 (ip), vehicle: Klucel (hydroxypropylcellulose) (HPC) 102 % of control | dose: 200.0 mg/kg/injection, schedule: Q04DX002 (ip), vehicle: Klucel (hydroxypropylcellulose) (HPC) 98 % of control

COC(=O)c1[nH]nc(-c2ccccc2)c1N
inactive: [3] 101 % of control | [4] 93 % of control | [5] 90 % of control

CCc1ccc(NC(=O)Nc2cccc3ccccc23)cc1
inactive: [9] 87 % of control | [6] 98 % of control | [10] 90 % of control | [7] 90 % of control | [12] 92 % of control | [11] 96 % of control

CC(COC(=O)c1ccc(N)cc1)NC1CCCC1 (stereo unspecified)
inactive: dose: 75.0 mg/kg/injection, schedule: Q01DX001 (ip), vehicle: saline 97 % of control | dose: 150.0 mg/kg/injection, schedule: Q01DX001 (ip), vehicle: saline 105 % of control

CC(N)C(=O)Nc1ccccc1 (stereo unspecified)
inactive: dose: 100.0 mg/kg/injection, schedule: Q01DX009 (ip), vehicle: water 94 % of control | dose: 100.0 mg/kg/injection, schedule: Q04DX003 (ip), vehicle: water 97 % of control | dose: 200.0 mg/kg/injection, schedule: Q01DX009 (ip), vehicle: water 100 % of control | dose: 200.0 mg/kg/injection, schedule: Q04DX003 (ip), vehicle: water 103 % of control | dose: 400.0 mg/kg/injection, schedule: Q01DX009 (ip), vehicle: water 100 % of control | dose: 400.0 mg/kg/injection, schedule: Q04DX003 (ip), vehicle: water 97 % of control

O=C(N/N=C/c1ccccc1[N+](=O)[O-])c1ccccc1
inactive: [9] 94 % of control | [10] 94 % of control | [12] 97 % of control

NC(=O)C(N)CCO (stereo unspecified)
inactive: dose: 75.0 mg/kg/injection, schedule: Q04DX003 (ip), vehicle: saline 104 % of control | dose: 150.0 mg/kg/injection, schedule: Q04DX003 (ip), vehicle: saline 104 % of control | dose: 300.0 mg/kg/injection, schedule: Q04DX003 (ip), vehicle: saline 100 % of control

Cc1cc(C(C)(C)C)ccc1SC(=O)Nc1cc([N+](=O)[O-])ccc1Cl
inactive: dose: 100.0 mg/kg/injection, schedule: Q01DX001 (ip), vehicle: gum acacia 94 % of control and 95 % of control | dose: 100.0 mg/kg/injection, schedule: Q01DX009 (ip), vehicle: gum acacia 103 % of control | dose: 100.0 mg/kg/injection, schedule: Q04DX002 (ip), vehicle: gum acacia 99 % of control and 105 % of control | dose: 100.0 mg/kg/injection, schedule: Q04DX003 (ip), vehicle: gum acacia 97 % of control and 108 % of control | dose: 200.0 mg/kg/injection, schedule: Q01DX001 (ip), vehicle: gum acacia 95 % of control and 97 % of control | dose: 200.0 mg/kg/injection, schedule: Q01DX009 (ip), vehicle: gum acacia 102 % of control | dose: 200.0 mg/kg/injection, schedule: Q04DX002 (ip), vehicle: gum acacia 103 % of control and 115 % of control | dose: 200.0 mg/kg/injection, schedule: Q04DX003 (ip), vehicle: gum acacia 96 % of control and 99 % of control | dose: 400.0 mg/kg/injection, schedule: Q01DX001 (ip), vehicle: gum acacia 94 % of control and 95 % of control | dose: 400.0 mg/kg/injection, schedule: Q04DX002 (ip), vehicle: gum acacia 101 % of control and 105 % of control | dose: 400.0 mg/kg/injection, schedule: Q04DX003 (ip), vehicle: gum acacia 101 % of control and 91 % of control
